Measured values from patent publication US8802597B2, “Herbicidal pyrimidines” (E I du Pont de Nemours and Company, priority 2003, dated 2014).

Key:
Experiment in all cases: Test C pre/postemergence
Assay type in all cases: in vivo
[1] = test system: cocklebur (Xanthium strumarium); settings: for Plant response rating, Cocklebur: Preemergence
Method in brief: (§1)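 Percent control is a visual rating (0 none, 100 complete) taken against untreated plants after 12 to 14 days of greenhouse growth. Applications were made preemergence to seeded pots and postemergence to plants at the 1- to 4-leaf stage, in a non-phytotoxic surfactant-containing solvent.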

[2] = test system: common ragweed (Ambrosia elatior); settings: for Plant response rating, Ragweed: Preemergence, scale 0 to 100, 0 no effect, 100 complete control
Method in brief: as §1

[3] = test system: velvetleaf (Abutilon theophrasti); settings: for Plant response rating, Velvetleaf: Preemergence, scale 0 to 100, 0 no effect, 100 complete control
Method in brief: as §1

[4] = test system: crabgrass (Digitaria sanguinalis); settings: for Plant response rating, Crabgrass: Preemergence
Method in brief: as §1

[5] = test system: yellow nutsedge (Cyperus esculentus); settings: for Plant response rating, Nutsedge, Yellow: Preemergence, scale 0 to 100, 0 no effect, 100 complete control
Method in brief: as §1

[6] = test system: kochia (Kochia scoparia); settings: for Plant response rating, Kochia: Preemergence
Method in brief: as §1

[7] = test system: eastern black nightshade (Solanum ptycanthum); settings: Preemergence, scale 0 to 100, 0 no effect, 100 complete control
Method in brief: as §1

[8] = test system: pigweed (Amaranthus retroflexus); settings: for Plant response rating, Pigweed: Preemergence, scale 0 to 100, 0 no effect, 100 complete control
Method in brief: as §1

[9] = test system: woolly cupgrass (Eriochloa villosa); settings: for Plant response rating, Cupgrass, Woolly: Preemergence
Method in brief: as §1

[10] = test system: morningglory (Ipomoea coccinea); settings: for Plant response rating, Morningglory: Preemergence
Method in brief: as §1

[11] = test system: giant foxtail (Setaria faberii); settings: for Plant response rating, Foxtail, Giant: Preemergence
Method in brief: as §1

[12] = test system: common (oilseed) sunflower (Helianthus annuus); settings: Preemergence, scale 0 to 100, 0 no effect, 100 complete control
Method in brief: as §1

[13] = Postemergence, 125 g ai/ha, scale 0 to 100 (0 no effect, 100 complete control)
[14] = 16 g ai/ha, scale 0 to 100, 0 no effect, 100 complete control
[15] = 31 g ai/ha, scale 0 to 100, 0 no effect, 100 complete control
[16] = 62 g ai/ha, scale 0 to 100, 0 no effect, 100 complete control

In the case of `Nc1nc(-c2ccc(Cl)cc2)nc(C(=O)[O-])c1Cl.[Na+]` [Compound 117], the “Plant response rating (scale of 0 to 100), Cocklebur” value ([1]; Postemergence, 16 g ai/ha) is reported as 90, the “Plant response rating (scale of 0 to 100), Cocklebur” value ([1]; Postemergence, 62 g ai/ha) is reported as 90 and the “Cocklebur plant response rating” value [1, 13] is reported as 90. The “Plant response rating, Cocklebur” value [1, 14] was 0, the “Plant response rating, Cocklebur” value [1, 15] was 0 and the “Plant response rating, Cocklebur” value [1, 16] was 5. The “Plant response rating, Cocklebur” value ([1]; 125 g ai/ha, scale 0 to 100) was 90, the “Plant response rating (scale of 0 to 100), Ragweed” value ([2]; Postemergence, 16 g ai/ha) was 95 and the “Plant response rating (scale of 0 to 100), Ragweed” value ([2]; Postemergence, 31 g ai/ha) was 95. For the same compound, the “Plant response rating (scale of 0 to 100), Ragweed” value ([2]; Postemergence, 62 g ai/ha) was 100, the “Ragweed plant response rating” value [2, 13] was 100 and the “Plant response rating, Ragweed” value ([2]; 16 g ai/ha) was 60. For the same compound, the “Plant response rating, Ragweed” value ([2]; 31 g ai/ha) was 60, the “Plant response rating, Ragweed” value ([2]; 62 g ai/ha) was 90 and the “Plant response rating (scale of 0 to 100), Velvetleaf” value ([3]; Postemergence, 16 g ai/ha) was 60. The “Plant response rating (scale of 0 to 100), Velvetleaf” value ([3]; Postemergence, 31 g ai/ha) was 70, the “Plant response rating (scale of 0 to 100), Velvetleaf” value ([3]; Postemergence, 62 g ai/ha) was 95 and the “Velvetleaf plant response rating” value [3, 13] was 95. For the same compound, the “Plant response rating, Velvetleaf” value ([3]; 16 g ai/ha) was 0, the “Plant response rating, Velvetleaf” value ([3]; 31 g ai/ha) was 50 and the “Plant response rating, Velvetleaf” value ([3]; 62 g ai/ha) was 65. For the same compound, the “Plant response rating (scale of 0 to 100), Crabgrass” value ([4]; Postemergence, 16 g ai/ha) was 85, the “Plant response rating (scale of 0 to 100), Crabgrass” value ([4]; Postemergence, 31 g ai/ha) was 90 and the “Plant response rating (scale of 0 to 100), Crabgrass” value ([4]; Postemergence, 62 g ai/ha) was 90. For the same compound, the “Crabgrass plant response rating” value [4, 13] was 90, the “Plant response rating, Crabgrass” value [4, 14] was 0 and the “Plant response rating, Crabgrass” value [4, 15] was 0. For the same compound, the “Plant response rating, Crabgrass” value [4, 16] was 0, the “Plant response rating, Crabgrass” value ([4]; 125 g ai/ha, scale 0 to 100) was 60 and the “Plant response rating (scale of 0 to 100), Nutsedge, Yellow” value ([5]; Postemergence, 16 g ai/ha) was 5. For the same compound, the “Plant response rating (scale of 0 to 100), Nutsedge, Yellow” value ([5]; Postemergence, 31 g ai/ha) was 50, the “Plant response rating (scale of 0 to 100), Nutsedge, Yellow” value ([5]; Postemergence, 62 g ai/ha) was 50 and the “Nutsedge, Yellow plant response rating” value [5, 13] was 60. For the same compound, the “Plant response rating, Nutsedge, Yellow” value ([5]; 16 g ai/ha) was 0, the “Plant response rating, Nutsedge, Yellow” value ([5]; 31 g ai/ha) was 0 and the “Plant response rating, Nutsedge, Yellow” value ([5]; 62 g ai/ha) was 50. For the same compound, the “Plant response rating (scale of 0 to 100), Kochia” value ([6]; Postemergence, 16 g ai/ha) was 90, the “Plant response rating (scale of 0 to 100), Kochia” value ([6]; Postemergence, 31 g ai/ha) was 90 and the “Plant response rating (scale of 0 to 100), Kochia” value ([6]; Postemergence, 62 g ai/ha) was 90. The “Kochia plant response rating” value [6, 13] was 90, the “Plant response rating, Kochia” value [6, 14] was 0 and the “Plant response rating, Kochia” value [6, 15] was 5. The “Plant response rating, Kochia” value [6, 16] was 20, the “Plant response rating, Kochia” value ([6]; 125 g ai/ha, scale 0 to 100) was 60 and the “Plant response rating, Nightshade” value ([7]; 16 g ai/ha) was 0. For the same compound, the “Plant response rating, Nightshade” value ([7]; 31 g ai/ha) was 5, the “Plant response rating, Nightshade” value ([7]; 62 g ai/ha) was 40 and the “Plant response rating (scale of 0 to 100), Pigweed” value ([8]; Postemergence, 16 g ai/ha) was 90. The “Plant response rating (scale of 0 to 100), Pigweed” value ([8]; Postemergence, 31 g ai/ha) was 95, the “Plant response rating (scale of 0 to 100), Pigweed” value ([8]; Postemergence, 62 g ai/ha) was 95 and the “Pigweed plant response rating” value [8, 13] was 95. The “Plant response rating, Pigweed” value ([8]; 16 g ai/ha) was 50, the “Plant response rating, Pigweed” value ([8]; 31 g ai/ha) was 80 and the “Plant response rating, Pigweed” value ([8]; 62 g ai/ha) was 90. For the same compound, the “Plant response rating (scale of 0 to 100), Cupgrass, Woolly” value ([9]; Postemergence, 16 g ai/ha) was 60, the “Plant response rating (scale of 0 to 100), Cupgrass, Woolly” value ([9]; Postemergence, 31 g ai/ha) was 80 and the “Plant response rating (scale of 0 to 100), Cupgrass, Woolly” value ([9]; Postemergence, 62 g ai/ha) was 80. The “Cupgrass, Woolly plant response rating” value [9, 13] was 85, the “Plant response rating, Cupgrass, Woolly” value [9, 14] was 0 and the “Plant response rating, Cupgrass, Woolly” value [9, 15] was 0. The “Plant response rating, Cupgrass, Woolly” value [9, 16] was 15, the “Plant response rating, Cupgrass, Woolly” value ([9]; 125 g ai/ha, scale 0 to 100) was 50 and the “Plant response rating (scale of 0 to 100), Morningglory” value ([10]; Postemergence, 16 g ai/ha) was 20. The “Plant response rating (scale of 0 to 100), Morningglory” value ([10]; Postemergence, 31 g ai/ha) was 50, the “Plant response rating (scale of 0 to 100), Morningglory” value ([10]; Postemergence, 62 g ai/ha) was 50 and the “Morningglory plant response rating” value [10, 13] was 50. The “Plant response rating, Morningglory” value [10, 14] was 0, the “Plant response rating, Morningglory” value [10, 15] was 0 and the “Plant response rating, Morningglory” value [10, 16] was 5. For the same compound, the “Plant response rating, Morningglory” value ([10]; 125 g ai/ha, scale 0 to 100) was 50, the “Plant response rating (scale of 0 to 100), Foxtail, Giant” value ([11]; Postemergence, 16 g ai/ha) was 50 and the “Plant response rating (scale of 0 to 100), Foxtail, Giant” value ([11]; Postemergence, 31 g ai/ha) was 55. For the same compound, the “Plant response rating (scale of 0 to 100), Foxtail, Giant” value ([11]; Postemergence, 62 g ai/ha) was 70, the “Foxtail, Giant plant response rating” value [11, 13] was 80 and the “Plant response rating, Foxtail, Giant” value [11, 14] was 0. The “Plant response rating, Foxtail, Giant” value [11, 15] was 0, the “Plant response rating, Foxtail, Giant” value [11, 16] was 5 and the “Plant response rating, Foxtail, Giant” value ([11]; 125 g ai/ha, scale 0 to 100) was 50. The “Plant response rating, Sunflower” value ([12]; 16 g ai/ha) was 0, the “Plant response rating, Sunflower” value ([12]; 31 g ai/ha) was 50 and the “Plant response rating, Sunflower” value ([12]; 62 g ai/ha) was 90.
